From ChEMBL document CHEMBL6177981, “Bardoxolone Derivatives as Novel Pseudo-Natural Necroptosis Inhibitors by Destabilizing HSP90 Client Proteins” (J Med Chem, 2025)
Calls of active or inactive are those of the source.

What was measured:
[1] = tested on: L929; assay: Anti-necroptotic activity in TZ-induced mouse L929 cells assessed as increase in cell viability preincubated with Z-VAD-FMK followed by mTNFalpha stimulation for 4 hrs and measured after compound addition by CellTiter-Lumi luminescent cell viability assay; assay type: functional, cell-based
[2] = tested on: HT-29; assay: Anti-necroptotic activity in TSZ-induced human HT-29 cells assessed as increase in cell viability preincubated with compound followed by Z-VAD-FMK, SM164 and TNFalpha addition and measured after 12 hrs by CellTiter-Lumi luminescent cell viability assay; assay type: functional, cell-based; conditions: dose 0.156-10 µM
[3] = tested on: HT-29; assay: Effect on cell morphology in TSZ-induced necroptotic human HT-29 cells at 10 uM measured after 12 hrs by Live-cell super-resolution panoramic microscopic analysis; assay type: functional, cell-based
[4] = tested on: Mus musculus; assay: Anti-necroptotic activity in TNFalpha/Z-VAD-FMK induced SIRS male C57BL/6J mouse model assessed as survival rate at 10 mg/kg, po pre-administered with compound via gavage for 2 hrs followed by […] of Z-VAD-FMK stimulation for 15 mins with subsequent TNF-alpha stimulation for 1 hrs and re-current […] of Z-VAD-FMK stimulation and measured after 8 hrs post SIRS induction relative to control; assay type: functional; conditions: time 10 hrs
[5] = tested on: Mus musculus; assay: Anti-necroptotic activity in TNFalpha/Z-VAD-FMK induced SIRS male C57BL/6J mouse model assessed as reduction in IL6 in intestine at 5 to 10 mg/kg, po pre-administered with compound via gavage for 2 hrs followed by […] of Z-VAD-FMK stimulation for 15 mins with subsequent TNF-alpha stimulation for 1 hrs and re-current […] of Z-VAD-FMK stimulation and measured after 8 hrs post SIRS induction by ELISA; assay type: functional, organism-based; conditions: dose 5-10 mg/kg, time 10.0 hrs
[6] = tested on: Mus musculus; assay: Anti-necroptotic activity in TNFalpha/Z-VAD-FMK induced SIRS male C57BL/6J mouse model assessed as reduction in IL-1beta in spleen at 5 to 10 mg/kg, po pre-administered with compound via gavage for 2 hrs followed by […] of Z-VAD-FMK stimulation for 15 mins with subsequent TNF-alpha stimulation for 1 hrs and re-current […] of Z-VAD-FMK stimulation and measured after 8 hrs post SIRS induction by ELISA; assay type: functional, organism-based; conditions: dose 5-10 mg/kg, time 10.0 hrs
[7] = tested on: Mus musculus; assay: Anti-necroptotic activity in TNFalpha/Z-VAD-FMK induced SIRS male C57BL/6J mouse model assessed as reduction in IL6 in lung at 5 to 10 mg/kg, po pre-administered with compound via gavage for 2 hrs followed by […] of Z-VAD-FMK stimulation for 15 mins with subsequent TNF-alpha stimulation for 1 hrs and re-current […] of Z-VAD-FMK stimulation and measured after 8 hrs post SIRS induction by ELISA; assay type: functional, organism-based; conditions: dose 5-10 mg/kg, time 10.0 hrs
[8] = tested on: Mus musculus; assay: Anti-necroptotic activity in TNFalpha/Z-VAD-FMK induced SIRS male C57BL/6J mouse model assessed as reduction in IL6 in kidney at 5 to 10 mg/kg, po pre-administered with compound via gavage for 2 hrs followed by […] of Z-VAD-FMK stimulation for 15 mins with subsequent TNF-alpha stimulation for 1 hrs and re-current […] of Z-VAD-FMK stimulation and measured after 8 hrs post SIRS induction by ELISA; assay type: functional, organism-based; conditions: dose 5-10 mg/kg, time 10.0 hrs
[9] = Cmax in Sprague-Dawley rat at 2 mg/kg, iv measured after 24 hrs by LC-MS/MS analysis; assay type: ADME, organism-based; conditions: in vivo
[10] = Bioavailability in Sprague-Dawley rat at 10 mg/kg, IG measured after 24 hrs by LC-MS/MS analysis; assay type: ADME, organism-based; conditions: in vivo, po
[11] = Acute toxicity in male C57BL/6J mouse assessed as survival at 2 g/Kg, po measured within 72 hrs relative to control; assay type: organism-based; conditions: in vivo, 2000 mg/kg
[12] = Acute toxicity in male C57BL/6J mouse assessed as effect on ALT level at 2 g/Kg, IG measured after 72 hrs; conditions: in vivo, po, 2000 mg/kg
[13] = Acute toxicity in male C57BL/6J mouse assessed as hemorrhage in heart at 2 g/Kg, IG measured after 72 hrs by H and E staining based analysis; assay type: tissue-based; conditions: in vivo, po, 2000 mg/kg
[14] = Acute toxicity in male C57BL/6J mouse assessed as structural changes in liver at 2 g/Kg, IG measured after 72 hrs by H and E staining based analysis; assay type: tissue-based; conditions: in vivo, po, 2000 mg/kg
[15] = Acute toxicity in male C57BL/6J mouse assessed as inflammatory cell infiltration in spleen at 2 g/Kg, IG measured after 72 hrs by H and E staining based analysis; assay type: tissue-based; conditions: in vivo, po, 2000 mg/kg
[16] = Acute toxicity in male C57BL/6J mouse assessed as structural changes in lung at 2 g/Kg, IG measured after 72 hrs by H and E staining based analysis; assay type: tissue-based; conditions: in vivo, po, 2000 mg/kg
[17] = Acute toxicity in male C57BL/6J mouse assessed as inflammatory cell infiltration in kidney at 2 g/Kg, IG measured after 72 hrs by H and E staining based analysis; assay type: tissue-based; conditions: in vivo, po, 2000 mg/kg
[18] = Acute toxicity in male C57BL/6J mouse assessed as hemorrhage in kidney at 2 g/Kg, IG measured after 72 hrs by H and E staining based analysis; assay type: tissue-based; conditions: in vivo, po, 2000 mg/kg
[19] = Acute toxicity in male C57BL/6J mouse assessed as inflammatory cell infiltration in stomach at 2 g/Kg, IG measured after 72 hrs by H and E staining based analysis; assay type: tissue-based; conditions: in vivo, po, 2000 mg/kg
[20] = Acute toxicity in male C57BL/6J mouse assessed as structural changes in intestine at 2 g/Kg, IG measured after 72 hrs by H and E staining based analysis; assay type: tissue-based; conditions: in vivo, po, 2000 mg/kg
[21] = tested on: HT-29; assay: Upregulation of HSP70 protein level in TSZ-induced human HT-29 cells at 0.625 to 10 uM preincubated with compound followed by Z-VAD-FMK, SM164 and TNFalpha stimulation and measured after 6 hrs by Western blot analysis; assay type: functional, cell-based; conditions: dose 0.625-10 µM
[22] = tested on: HT-29; assay: Downregulation of MLKL protein level in human HT-29 cells at 3 to 6 uM incubated for 9 hrs by Western blot analysis; assay type: functional, cell-based; conditions: dose 3-6 µM
[23] = tested on: HT-29; assay: Downregulation of RIPK1 protein level in human HT-29 cells at 6 uM preincubated with NH4Cl for 2 hrs followed by compound addition and measured after 9 hrs by Western blot analysis; assay type: functional, cell-based
[24] = tested on: HT-29; assay: Downregulation of RIPK3 protein level in human HT-29 cells at 6 uM preincubated with MG132 for 2 hrs followed by compound addition and measured after 9 hrs by Western blot analysis; assay type: functional, cell-based
[25] = tested on: HeLa; assay: Downregulation of EGFR expression in RIPK3-deficient human HeLa cells at 0.75 to 6 uM incubated for 9 hrs by Western blot analysis; assay type: functional, cell-based; conditions: dose 0.75-6 µM
[26] = tested on: HeLa; assay: Upregulation of HSP70 expression in RIPK3-deficient human HeLa cells at 1.5 uM incubated for 9 hrs by Western blot analysis; assay type: functional, cell-based
[27] = tested on: HeLa; assay: Inhibition of MLKL protein expression in RIPK3-deficient human HeLa cells at 0.75 to 6 uM incubated for 9 hrs by Western blot analysis; assay type: functional, cell-based; conditions: dose 0.75-6 µM
[28] = tested on: HeLa; assay: Inhibition of MLKL protein expression in RIPK3-deficient human HeLa cells at 6 uM preincubated with NH4Cl for 2 hrs followed by compound addition and measured after 9 hrs by Western blot analysis; assay type: functional, cell-based
[29] = tested on: HT-29; assay: Downregulation of RIPK1 protein level in human HT-29 cell supernatant at 6 uM measured after 9 hrs by Western blot analysis; assay type: functional, cell-based
[30] = tested on: HT-29; assay: Effect on RIPK3 protein level in human HT-29 cell precipitate at 6 uM measured after 9 hrs by Western blot analysis; assay type: functional, cell-based

Cn1ccc(-c2ccc(NC(=O)[C@]34CCC(C)(C)C[C@H]3[C@H]3C(=O)C=C5[C@@]6(C)C=C(C#N)C(=O)C(C)(C)[C@@H]6CC[C@@]5(C)[C@]3(C)CC4)cc2)n1
100%: survival at 10 mg/kg [4] | survival at 72 h [11]
Active; Significant Effect Observed: Activity [22]
Non-toxic: Activity [12] | Activity [13] | Activity [14] | Activity [15] | Activity [16] | Activity [17] | Activity [18] | Activity [19] | Activity [20]
4.66%: bioavailability [10]
inactive: Activity [21] | Activity [30]
4.12 µM: EC50 [1]
active: Activity [2] Dose-dependent-effect | Activity [3] | Activity [5] | Activity [6] | Activity [7] | Activity [8] | Activity [23] | Activity [24] | Activity [25] | Activity [26] | inhibition [27] | inhibition [28] | Activity [29]
1040 ng/mL: Cmax [9]
